{"source": "patent US7037647B1", "about": "“Prostate-specific membrane antigen and uses thereof” (Sloan-Kettering Institute for Cancer Research, priority 1995, dated 2006)", "key": {"[1]": {"test_system": "PSM mRNA expression in LNCaP cells", "test": "Steroid modulation of PSM mRNA expression, ribonuclease protection assay", "type": "cell-based, human", "conditions": "24 hours; for downregulation of PSM mRNA expression: charcoal-extracted serum media, steroid 2 nM; for effect on PSM mRNA expression (in words): physiologic doses of steroids", "from_the_text": "A portion of the PSM cDNA was subcloned into the plasmid vector pSPORT 1 (Gibco-BRL) and the orientation of the cDNA insert relative to the flanking T7 and SP6 RNA polymerase promoters was verified by restriction analysis. Linearization of this plasmid upstream of the PSM insert followed by transcription with SP6 RNA polymerase yields a 400 nucleotide antisense RNA probe, of which 350 nucleotides should be protected from RNase digestion by PSM RNA. This probe was used in FIG. 20. Plasmid IN-20, containing a 1 kb partial PSM cDNA in the plasmid pCR II (Invitrogen) was also used for riboprobe synthesis. IN-20 linearized with Xmn I (Gibco-BRL) yields a 298 nucleotide anti-sense RNA probe when transcribed using SP6 RNA polymerase, of which 260 nucleotides should be protected from RNase digestion by PSM mRNA. This probe was used in FIGS. 21 and 22. Probes were synthesized using SP6 RNA polymerase (Gibco-BRL), rNTPs (Gibco-BRL), RNAsin (Promega), and ^32P-rCTP (NEN, Wilmington, Del.) according to published protocols (13). Probes were purified over NENSORB 20 purification columns (NEN) and approximately 1 million cpm of purified, radiolabeled PSM probe was mixed with 10μ of each RNA and hybridized overnight at 45 C using buffers and reagents from the RPA II kit (Ambion, Austin, Tex.). Samples were processed as per manufacturer's instructions and analyzed on 5% polyacrilamide/7M urea denaturing gels using Seq ACRYL reagents (ISS, Natick, Mass.). Gels were pre-heated to 55 C and run for approximately 1-2 hours at 25 watts. Gels were then fixed for 30 minutes in 10% methanol/10% acetic acid, dried onto Whatman 3MM paper at 80 C in a BioRad vacuum dryer and autoradiographed overnight with Hyperfilm MP (Amersham). Quantitation of PSM expression was determined by using a scanning laser densitometer (LKB, Piscataway, N.J.).\nLNCaP cells (2 million) were plated onto T-75 flasks in RPMI 1640 media supplemented with 5% fetal calf serum and grown 24 hours until approximately 30-40% confluent. Flasks were then washed several times with phophate-buffered saline and RPMI medium supplemented with 5% charcoal-extracted serum was added. Cells were then grown for another 24 hours, at which time dihydrotesterone, testosterone, estradiol, progesterone, and dexamethasone (Steraloids Inc., Wilton, N.H.) were added at a final concentration of 2 nM. Cells were grown for another 24 hours and RNA was then harvested as previously described and PSM expression analyzed by ribonuclease protection analysis."}, "[2]": {"target": "T1, PSM enzyme (folate hydrolase) (Homo sapiens, UniProt Q04609)", "T1 construct": "membrane preparations from androgen-sensitive human prostatic carcinoma cells (LNCaP); endogenous in cells; host or cells: LNCaP cell membranes", "T1 sequence (Q04609 whole entry)": "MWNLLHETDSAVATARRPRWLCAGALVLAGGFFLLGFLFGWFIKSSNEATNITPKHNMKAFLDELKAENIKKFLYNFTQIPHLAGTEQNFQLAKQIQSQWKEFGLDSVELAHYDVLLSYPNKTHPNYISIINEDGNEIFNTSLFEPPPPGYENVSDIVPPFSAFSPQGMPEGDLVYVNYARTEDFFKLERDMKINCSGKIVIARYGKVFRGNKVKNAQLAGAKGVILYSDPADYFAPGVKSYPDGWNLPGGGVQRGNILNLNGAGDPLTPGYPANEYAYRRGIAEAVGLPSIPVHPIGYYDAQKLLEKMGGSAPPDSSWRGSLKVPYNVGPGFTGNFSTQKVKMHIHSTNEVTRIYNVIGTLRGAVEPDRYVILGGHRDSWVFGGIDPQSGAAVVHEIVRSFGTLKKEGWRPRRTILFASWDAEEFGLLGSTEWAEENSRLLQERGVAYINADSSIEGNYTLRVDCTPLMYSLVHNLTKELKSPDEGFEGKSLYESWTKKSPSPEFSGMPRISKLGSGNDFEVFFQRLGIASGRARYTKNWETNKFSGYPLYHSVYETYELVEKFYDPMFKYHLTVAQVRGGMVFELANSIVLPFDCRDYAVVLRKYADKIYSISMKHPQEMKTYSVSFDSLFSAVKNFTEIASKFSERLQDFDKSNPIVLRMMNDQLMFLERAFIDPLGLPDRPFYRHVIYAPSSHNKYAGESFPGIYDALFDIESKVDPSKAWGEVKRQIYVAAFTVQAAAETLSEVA", "type": "biochemical", "conditions": "for hydrolysis as substrate by the PSM enzyme (in words): LNCaP membrane preparations", "from_the_text": "Using capillary electrophoresisis pteroyl poly-gamma-glutamate carboxypeptidase (hydrolase) activity was investigated in membrane preparations from androgen-sensitive human prostatic carcinoma cells (LNCaP)."}, "[3]": {"target": "T2, Prostate specific membrane antigen (Homo sapiens, UniProt Q04609)", "T2 construct": "Prostate specific membrane antigen was immuno precipitated from the prostate cancer cell line LNCaP; endogenous in cells; host or cells: LNCaP (immunoprecipitate)", "T2 sequence (Q04609 whole entry)": "as above", "test": "Inhibition of neuropeptidase activity (NAAG as substrate) of immunoprecipitated PSM", "type": "biochemical", "from_the_text": "PSM may have activities both as a folate hydrolase and a carboxyneuropeptidase. For the cytotoxic drug methotrexate to be a tumor toxin it has to get into the cell and be polygammaglutamated which to be active, because polyglutamated forms serve as the enzyme substrates and because polyglutamated forms or toxins are also retained by the cell. Folate hydrolase is a competing reaction and deglutamates methotrexate which then can diffuse back out of the cell. Cells that overexpose folate hydrolase activity are resistant to methotrexate. Prostate cancer has always been absolutely refractory to methotrexate therapy and this may explain why, since the prostate and prostate cancer has a lot of folate hydolase activity. However, based on this activity, prodrugs may be generated which would be activate at the site of the tumor such as N-phosphonoacetyl-1-aspartate-glutamate.\nFolate is necessary for the support of cell function and growth and thus this enzyme may serve to modulate folate access to the prostate and prostate tumor. The other area where PSM is expressed is in the small intestine. It turns out that a key enzyme of the small intestine that is involved in folate uptake acts as a gamma-carboxypeptidase in sequentially proteolytically removing the terminal gammaglutaminyl group from folate. […]"}, "[4]": {"test_system": "PSM mRNA expression in LNCaP cells", "test": "Modulation of PSM mRNA expression by cytokines and growth factors, Northern blot and laser densitometry", "type": "cell-based, human", "conditions": "24 to 72 hours, 0.1 ng/ml to 100 ng/ml; for upregulation of PSM expression compared to untreated LNCaP: androgen-depleted media; for downregulation of PSM expression: androgen depleted LNCaP cells", "from_the_text": "Total RNA was extracted from the cells and PSM mRNA expression was quantitated by Northern blot analysis and laser densitometry."}, "[5]": {"test_system": "PC-3 cells", "test": "Mitogenic response to transferrin, cell count", "type": "cell-based, human", "conditions": "1 μg per ml holotransferrin, counted at 5 days", "description": "2×10^4 PC-3 or PSM-transfected PC-3 cells per well ere plated in RPMI medium supplemented with 10% fetal bovine serum and at 24 hrs. added 1 μg per ml. of holotransferrin to the cells. […] Cells were counted at 1 day to determine plating efficiency and at 5 days to determine the effect of the transferrin. Experiments were repeated to verify the results."}, "[6]": {"test_system": "LNCaP cells", "test": "Mitogenic response to transferrin, cell count", "type": "cell-based, human"}, "[7]": {"conditions": "0.05-0.5 mM, semi-purified membrane-bound enzyme"}}, "note": "Like-named read-outs stand apart in the source and are kept apart here."}
{"molecule": "C[C@]12CCC(=O)C[C@@H]1CC[C@@H]1[C@@H]2CC[C@]2(C)[C@@H](O)CC[C@@H]12", "note": "[DHT, dihydrotesterone]", "values": [{"measurement": "doses at which maximal downregulation of PSM mRNA was seen", "setting": "[1]", "result": "2 to 20", "unit": "nM"}, {"measurement": "downregulation of PSM mRNA expression", "setting": "[1]", "result": "8-10 fold"}, {"measurement": "effect on PSM mRNA expression (in words)", "setting": "[1]", "result": "significantly diminished PSM expression"}]}
{"molecule": "CN(Cc1cnc2nc(N)nc(N)c2n1)c1ccc(C(=O)N[C@@H](CCC(=O)N[C@@H](CCC(=O)N[C@@H](CCC(=O)O)C(=O)O)C(=O)O)C(=O)O)cc1", "note": "[MTXGlu3, methotrexate triuglutamate]", "values": [{"measurement": "hydrolysis as substrate by the PSM enzyme (in words)", "setting": "[2]", "result": "liberates progressively glutamates"}]}
{"molecule": "O=C(O)CC[C@H](NC(=O)[C@H](CC(=O)O)NC(=O)CP(=O)(O)O)C(=O)O", "note": "[PALglu, N-phosphonoacetyl-1-aspartate-glutamate]", "values": [{"measurement": "inhibition of neuropeptidase activity (in words)", "setting": "[3]; NAAG as a substrate", "result": "is an inhibitor of the enzyme activity"}]}
{"molecule": "O[C@@H](CS)[C@@H](O)CS", "note": "[dithfothreitol]", "values": [{"measurement": "inhibition of enzymatic activity (in words)", "setting": "[2]; ≧0.2 mM, semi-purified membrane-bound enzyme", "result": "weakly inhibited"}]}
{"molecule": "N[C@@H](CCS)C(=O)O", "note": "[homocysteine]", "values": [{"measurement": "inhibition of enzymatic activity (in words)", "setting": "[2]; [7]", "result": "not"}]}
{"molecule": "O=C(O)c1cc[c]([Hg+])cc1.[OH-]", "note": "[p-hydroxymercuribenzoate]", "values": [{"measurement": "inhibition of enzymatic activity (in words)", "setting": "[2]; [7]", "result": "not"}]}
{"molecule": "CC(=O)[C@H]1CC[C@H]2[C@@H]3CCC4=CC(=O)CC[C@]4(C)[C@H]3CC[C@]12C", "note": "[progesterone]", "values": [{"measurement": "effect on PSM mRNA expression (in words)", "setting": "[1]", "result": "downregulated PSM expression"}, {"measurement": "effect on PSM mRNA expression (in words)", "setting": "[1]; listed as Progesterone", "result": "significantly diminished PSM expression"}]}
{"molecule": "N[C@@H](CCC(=O)N[C@@H](CS)C(=O)NCC(=O)O)C(=O)O", "note": "[reduced glutathione]", "values": [{"measurement": "inhibition of enzymatic activity (in words)", "setting": "[2]", "result": "not"}]}
{"molecule": "C[C@]12CC[C@H]3[C@@H](CCC4=CC(=O)CC[C@@]43C)[C@@H]1CC[C@@H]2O", "note": "[testosterone]", "values": [{"measurement": "downregulation of PSM mRNA expression", "setting": "[1]", "result": "3-4 fold"}, {"measurement": "effect on PSM mRNA expression (in words)", "setting": "[1]", "result": "significantly diminished PSM expression"}]}
{"molecule": "Penta-gammaglutamyl-folate", "values": [{"measurement": "Ki", "setting": "[3]; read-out: Ki, inhibition of the activity of the enzyme", "result": 500, "unit": "nM"}, {"measurement": "hydrolysis as substrate by the PSM enzyme (in words)", "setting": "[2]", "result": "liberates progressively glutamates"}]}
{"molecule": "TGFα: growth factor, mitogenic for aggressive prostate cancer cells", "values": [{"measurement": "upregulation of PSM expression compared to untreated LNCaP", "setting": "[4]", "result": 10, "unit": "fold"}]}
{"molecule": "TNFα", "values": [{"measurement": "downregulation of PSM expression", "setting": "[4]", "result": 8, "unit": "fold"}]}
{"molecule": "b-FGF: growth factor", "values": [{"measurement": "upregulation of PSM expression compared to untreated LNCaP", "setting": "[4]", "result": 10, "unit": "fold"}]}
{"molecule": "transferrin: holotransferrin added at 1 μg per ml to the cells", "values": [{"measurement": "average increase in cell growth over controls", "setting": "[5]", "result": 275, "unit": "%"}, {"measurement": "stimulation of cell growth", "setting": "[6]", "result": 43, "unit": "%"}]}
{"molecule": "TNFβ: cytokine (protein, UniProt P01374 35-205, looked up) Lymphotoxin-alpha: LPGVGLTPSAAQTARQHPKMHLAHSTLKPAAHLIGDPSKQNSLLWRANTDRAFLQDGFSLSNNSLLVPTSGIYFVYSQVVFSGKAYSPKATSSPLYLAHEVQLFSSQYPFHVPLLSSQKMVYPGLQEPWLHSMYHGAAFQLTQGDQLSTHTDGIPHLVLSPSTVFFGAFAL", "values": [{"measurement": "downregulation of PSM expression", "setting": "[4]", "result": 8, "unit": "fold"}]}
